Results on 1 compound are retold here after patent publication US6677492B2, “Fluoroether compositions and methods for inhibiting their degradation in the presence of a Lewis acid” (Abbott Laboratories, priority 1997, dated 2004).

What all share (type): physicochemical
The nature of series [1]: Degradation of water-spiked sevoflurane in ampules at 60° C. or 40° C. The protocol: Type I clear glass ampules were employed to study the effect of various levels of water and temperature in inhibiting the degradation of sevoflurane. Approximately 20 mL of sevoflurane and different levels of water ranging from about 109 ppm to about 951 ppm were added to each ampule. The ampules were then flame-sealed. To accelerate the degradation process, samples from each moisture level were placed at two heating conditions. Samples were placed on 60° C. stability station for 144 hours or placed on a 40° C. stability station for 200 hours. The resulting sevoflurane in each of the samples was analyzed by gas chromatography and pH. Hexafluoroisopropyl alcohol (HFIP) and the total degradants of sevoflurane were measured.

The nature of series [2]: Degradation of sevoflurane in ampules, water-spiked studies (109 ppm to 951 ppm), autoclaved. The conditions noted are these: ampules in Set A and Set B, autoclaved at 119° C. for three hours. The protocol:
Type I clear glass ampules were used to study the effect of various levels of water in inhibiting the degradation of sevoflurane. Approximately 20 mL of sevoflurane and different levels of water ranging from about 109 ppm to about 951 ppm were added to each ampule. The ampules were then sealed. A total of ten ampules were filled with sevoflurane and varying amounts of water. Five of the ampules were included in Set A and the other five ampules were included in Set B. The ampules were then autoclaved at 119° C. for three hours. Samples in Set A were placed on a mechanical shaker overnight to allow the moisture to coat the glass surface. Samples in Set B were prepared without equilibrating the water with the glass surface. Several control samples were also prepared. Two non-autoclaved ampules (Control Ampule 1 and Control Ampule 2) and a bottle (Control bottle) were each filled with 20 mL of sevoflurane. No water was added to any of the control samples. Also, the controls samples were not shaken overnight. The levels of hexafluoroisopropanol (HFIP) and total degradants (including methyleneglycol bishexafluoroisopropyl ether, dimethyleneglycol bishexafluoroisopropyl ether, methyleneglycol fluoromethyl hexafluoro isopropyl ether) were measured by gas chromatography.

A short description of series [3]: Degradation of sevoflurane with activated alumina at three moisture levels, gas chromatography. The conditions noted are these: 50 mg aluminum oxide; 20, 100, 260 ppm water; 60° C., 22 hours; FIG. 1. The protocol: Type III glass consists mainly of silicon dioxide, calcium oxide, sodium oxide and aluminum oxide. Aluminum oxide is a known Lewis acid The glass matrix is normally inert to sevoflurane. However, under certain conditions (anhydrous, acidic), the glass surface can be attacked or altered, exposing sevoflurane to active Lewis acid sites such as aluminum oxide.
The effect of water on the degradation of sevoflurane was studied by adding various amounts of activated alumina to 20 ml of sevoflurane containing the following three levels of moisture: 1) 20 ppm water—measured water, no additional water added; 2) 100 ppm—spiked; and 3) 260 ppm water—spiked.
It will be appreciated that 20 ppm Water is equivalent to […] w/w Water. The samples were placed at 60° C. and analyzed by gas chromatography after 22 hours.

The nature of series [4]: Sevoflurane degradation in activated Type III amber glass bottles, 20 ppm vs 400 ppm water. The protocol:
The extent of the degradation of sevoflurane in each of the bottles from Example 5 were quantified by gas chromatography. The ten bottles were divided into two groups, the Control Sevo Group (containing bottles 2, 3, 5, 7, 8) and the Study Sevo Group (containing Bottles 1, 4, 6, 9, 10).
All ten bottles were re-rinsed several times with non-degraded sevoflurane containing about 20 ppm of water. For the five Control Sevo Group bottles, 100 mL of sevoflurane containing about 20 ppm of water was added to each bottle. For the five Study Group bottles, 100 mL of sevoflurane containing about 400 ppm of water (spiked) was added to each bottle.
Gas chromatography for all samples was performed at time zero and after heating at 50° C. for 18 hours. Hexafluoroisopropyl alcohol (HFIP), dimethyleneglycol bishexafluoroisopropyl ether (P2) and total degradants were measured.

The nature of series [5]: Degradation of sevoflurane in ampules by heat with and without added water. The conditions noted are these: Type I clear ampule autoclaved at 119° C. for three hours. The protocol: Approximately 20 mL of sevoflurane was added to a 50 mL Type I clear ampule and approximately 20 mL of sevoflurane and 1300 ppm of water was added to a second ampule. Both ampules were flame-sealed and then autoclaved at 119° C. for three hours. The contents of the two ampules were then analyzed by gas chromatography.

Series [6] can be described thus: Sevoflurane degradation in activated Type III amber glass bottles pre-treated with water-saturated sevoflurane. The conditions noted are these: activated glass surface treated with water saturated-sevoflurane prior to heating. The protocol:
Sevoflurane was decanted from the five bottles of the Study Sevo Group from Example 6. Each bottle was rinsed thoroughly with fresh sevoflurane. Approximately 125 mL of water-saturated sevoflurane was then put into each bottle. The five bottles were then placed on a mechanical roller for approximately two hours to allow the water to coat the activated glass surfaces. The water-saturated sevoflurane was then drained form each bottle and replaced by 100 mL of sevoflurane containing 400 (spiked) ppm of water. Gas chromatography analysis for all samples was performed after heating at 50° C. for 18 hours, 36 hours, and 178 hours. bishexafluoroisopropyl ether (P2) and total degradants were measured.

On to `FCOC(C(F)(F)F)C(F)(F)F` [sevoflurane, fluoromethyl-2,2,2-trifluoro-1-(trifuoromethyl)ethyl ether], for which the “water levels that inhibit degradation of sevoflurane” value in series [1] (40° C. for 200 hours) is “higher than 206 ppm”; in series [1] (60° C. for 144 hours or longer) it was “higher than 303 ppm”. Moreover, the “water sufficient to inhibit the degradation of sevoflurane” value in series [2] is reported as “at least 595 ppm”. Moreover, the degradation of sevoflurane entry was “decreases with increasing amounts of water” in series [3]; “significantly reduced” in series [4] (Study Sevo Group (400 ppm water), 50° C. for 18 hours); “no significant degradation” in series [4] (zero hour, compared to zero-hour results in Table 4); “degraded” in series [5] (first ampule, no water added, FIG. 2); “did not degrade” in series [5] (second ampule, 1300 ppm of water, FIG. 3); “greatly inhibited” in series [6]. In series [4] (Study Sevo Group (400 ppm water)), the HFIP concentration entry is listed as “quite high”. In series [4] (Study Sevo Group (400 ppm water) compared with Control Group (20 ppm water)), the “amounts of degradants P2 and S1” value is recorded as “much less”. Moreover, the “degradation of sevoflurane (degradant S1)” value in series [4] (addition of 400 ppm of water, activated amber glass bottles, Examples 5 and 6, FIG. 5) was “inhibited”. In addition, the “degradation of sevoflurane (degradant P2)” value in series [4] (addition of 400 ppm of water, activated type III amber glass bottles, Examples 5 and 6, FIG. 4) is listed as “inhibited”.
